According to patent US20240216357A1 (SICHUAN HUIYU PHARMACEUTICAL CO., LTD., priority 2021, published 2024):
Where a name gives a salt, the structure may show the parent alone. Read-outs that look alike come from different tables or passages of the source.

Legend:
[1] = biological target: voltage-gated potassium ion channel hERG (Homo sapiens (Human), UniProt Q12809); assay: hERG inhibition test (manual patch-clamp); conditions: read-out: hERG IC50; manual patch-clamp
[2] = biological target: LSD1 (Homo sapiens (Human), UniProt O60341); assay: LSD1 enzyme activity detection (HTRF); type: biochemical; conditions: read-out: Inhibition of enzymatic activity of LSD1 IC50
[3] = test system: NCI-H1417 cells; assay: In vitro cell proliferation detection (CellTiter-Glo, 7 days); type: cell-based; conditions: read-out: NCI-H1417 proliferation inhibition IC50
[4] = Homo sapiens, 168 h, NCI-H1417 cells, 7 days, CellTiter-Glo

Chain of voltage-gated potassium ion channel hERG (Q12809 whole entry): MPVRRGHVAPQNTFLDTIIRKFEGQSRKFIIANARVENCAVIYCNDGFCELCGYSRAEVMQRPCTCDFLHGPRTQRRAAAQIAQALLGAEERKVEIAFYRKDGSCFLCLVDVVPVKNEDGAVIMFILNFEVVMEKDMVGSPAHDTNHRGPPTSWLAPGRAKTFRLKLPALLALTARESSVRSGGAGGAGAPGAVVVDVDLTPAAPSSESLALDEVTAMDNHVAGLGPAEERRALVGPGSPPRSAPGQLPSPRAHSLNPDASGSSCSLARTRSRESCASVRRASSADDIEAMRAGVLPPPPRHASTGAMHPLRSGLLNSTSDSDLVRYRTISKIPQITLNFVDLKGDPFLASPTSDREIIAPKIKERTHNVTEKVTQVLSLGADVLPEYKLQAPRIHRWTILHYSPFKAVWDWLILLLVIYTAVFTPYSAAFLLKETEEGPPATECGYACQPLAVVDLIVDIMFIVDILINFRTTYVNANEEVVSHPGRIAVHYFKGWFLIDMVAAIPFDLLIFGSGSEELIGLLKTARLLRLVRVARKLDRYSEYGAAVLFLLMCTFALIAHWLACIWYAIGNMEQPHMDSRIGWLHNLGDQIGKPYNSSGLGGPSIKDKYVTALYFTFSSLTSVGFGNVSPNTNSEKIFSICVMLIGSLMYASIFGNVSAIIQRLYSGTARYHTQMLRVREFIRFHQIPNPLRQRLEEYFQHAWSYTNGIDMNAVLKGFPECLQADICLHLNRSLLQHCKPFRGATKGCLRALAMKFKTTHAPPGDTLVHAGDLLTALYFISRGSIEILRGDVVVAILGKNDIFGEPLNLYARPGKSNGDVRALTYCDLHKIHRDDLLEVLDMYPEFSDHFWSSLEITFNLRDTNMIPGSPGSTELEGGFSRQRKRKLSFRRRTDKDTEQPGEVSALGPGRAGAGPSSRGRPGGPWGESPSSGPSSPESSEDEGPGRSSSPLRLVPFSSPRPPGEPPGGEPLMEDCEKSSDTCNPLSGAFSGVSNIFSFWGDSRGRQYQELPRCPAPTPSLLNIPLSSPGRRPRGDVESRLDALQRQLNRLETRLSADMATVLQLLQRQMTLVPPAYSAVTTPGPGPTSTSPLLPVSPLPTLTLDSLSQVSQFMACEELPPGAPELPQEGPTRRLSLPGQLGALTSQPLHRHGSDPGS

Row | SMILES | IC50 ([2]; HTRF, H3K4me1 substrate) [nM] | IC50 [3, 4] [nM] | further results
1 | Cc1noc2cc(-c3c(O)cc(N4CCC(N)CC4)nc3-c3ccc(C#N)c(F)c3)c(F)cc12 [Example 26, 4-(6-(4-aminopiperidin-1-yl)-3-(5-fluoro-3-methylbenzo[d]isoxazol-6-yl)-4-hydroxypyridin-2-yl)-2-fluorobenzonitrile] | 3.67 ± 0.72 | 7.45 | IC50 [1]: > 30000 nM
2 | COc1cc(N2CCC(N)CC2)nc(-c2ccc(C#N)c(F)c2)c1-c1ccc(Cl)c(O)c1 [Example 98, 4-(6-(4-aminopiperidin-1-yl)-3-(4-chloro-3-hydroxyphenyl)-4-methoxypyridin-2-yl)-2-fluorobenzonitrile hydrochloride] |  | 0.604 | IC50 [1]: 5850 nM
3 | O=C(NC1CCOCC1)c1cc(CN[C@@H]2C[C@H]2c2ccc(F)cc2)nc(-c2ccccc2)n1 [Example 237] | 423 ± 23 | 28.3 | 
4 | CS(=O)(=O)N1CCN(C(=O)c2cc(CN[C@@H]3C[C@H]3c3ccc(F)cc3)nc(-c3ccc(F)c(O)c3)n2)CC1 [Example 238, (2-(4-fluoro-3-hydroxy phenyl)-6-(((1R,2S)-2-(4-fluorophenyl)cyclo-propyl)amino)methyl) pyrimidin-4-yl)(4-(methyl-sulfonyl)piperazin-1-yl) methanone hydrochloride] | 98 ± 1 | 5.31 | 
5 | O=C(c1cc(CN[C@@H]2C[C@H]2c2ccc(F)cc2)nc(-c2cccnc2)n1)N1CCOCC1 [Example 240] | 770 | 29.5 | 
6 | COc1ccc(-c2nc(CN[C@@H]3C[C@H]3c3ccc(F)cc3)cc(C(=O)N3CCOCC3)n2)cc1O [Example 241] | 26.9 | 12.6 | 
7 | O=C(c1cc(CN[C@@H]2C[C@H]2c2ccc(F)cc2)nc(-c2ccc(-n3ccnn3)cc2)n1)N1CCOCC1 [Example 242] | 49.6 | 2.83 | 
8 | O=C(c1cc(CN[C@@H]2C[C@H]2c2ccc(F)cc2)nc(-c2ccc(N3CCOCC3)cc2)n1)N1CCC(F)(F)CC1 [Example 244, (4,4-difluoropiperidin-1-yl)(6-(((1R,2S)-2-(4-f1uorophenyl)cyclopropyl)amino)methyl)-2-(4-morpholinophenyl) pyrimidin-4-yl)methanone hydrochloride] | 116 | 5.07 | 
9 | O=C(c1cc(CN[C@@H]2C[C@H]2c2ccc(F)cc2)nc(-c2ccc(N3CCOCC3)cc2)n1)N1CCOCC1 [Example 245, (6-((1R,2S)-2-(4-fluorophenyl)cyclopropyl)amino)methyl)-2-(4-morpholinophenyl) pyrimidin-4-yl) (morpholino)methanone hydrochloride] | 39.1 | 1.98 | 
10 | COc1ccc(-c2nc(CN[C@@H]3C[C@H]3c3ccc(F)cc3)cc(C(=O)N3CCC(F)(F)CC3)n2)cc1O [Example 247] | 65.8 | 6.51 | 
11 | O=C(c1cc(CN[C@@H]2C[C@H]2c2ccc(F)cc2)nc(-c2ccc(-n3ccnn3)cc2)n1)N1CCC(F)(F)CC1 [Example 248, (2-(4-(1H-1,2,3-triazol-1-yl)phenyl)-6-((((1R,2S)-2-(4-fluorophenyl)cyclo-propyl)amino)methyl)pyrimidin-4-yl)(4,4-difluoropiperidin-1-yl) methanone] | 140 | 2.98 | 
12 | O=C(NC1CCOCC1)c1cc(CN[C@@H]2C[C@H]2c2ccc(F)cc2)nc(-c2ccc(-n3ccnn3)cc2)n1 [Example 249] | 15.8 | 1.11 | 
13 | COc1ccc(C2CC2NCc2c(OC)cc(N3CCC(N)CC3)nc2-c2ccc(C#N)c(F)c2)cc1F (stereo not shown) [Example 252] | 73.7 |  | IC50 ([3]; NCI-H1417 cells, 7 days, CellTiter-Glo): > 1000 nM
14 | CS(=O)(=O)N1CCN(C(=O)c2cc(CCN[C@@H]3C[C@H]3c3ccc(F)cc3)nc(-c3ccc(-n4cccn4)cc3)c2)CC1 [Example 255, (2-(4-(1H-pyrazol-1-yl)phenyl)-6-(2-(((1R,2S)-2-(4-fluorophenyl)cyclopropyl)amino)ethyl)pyridin-4-yl) (4-(methylsulfonyl)piperazin-1-yl)methanone] | 172 | 29.1 | 
15 | CS(=O)(=O)N1CCN(C(=O)c2cc(CCN[C@@H]3C[C@H]3c3ccc(F)cc3)cc(-c3ccc(-n4cccn4)cc3)n2)CC1 [Example 256, (6-(4-(1H-pyrazol-1-yl)phenyl)-4-(2-(((1R,2S)-2-(4-fluorophenyl)cyclopropyl)amino)ethyl)pyridin-2-yl) (4-(methylsulfonyl)piperazin-1-yl)methanone] | 71.3 | 10.8 | 
16 | N#Cc1ccc(-c2nc(CCCN[C@@H]3C[C@H]3c3ccc(F)cc3)cc(C(=O)N3CCC(F)(F)CC3)n2)cc1 [Example 258, 4-(4-(4,4-difluoropiperidine-1-carbonyl)-6-(3-(((1R,2S)-2-(4-fluorophenyl)cyclopropyl)amino)propyl)pyrimidin-2-yl)benzonitrile hydrochloride] | 232 | 89.7 | 
17 | CS(=O)(=O)N1CCN(c2cc(CN[C@@H]3C[C@H]3c3ccc(F)cc3)nc(-c3ccc(C#N)cc3)n2)CC1 [Example 264, 4-(4-((((1R,2S)-2-(4-fluoro-phenyl)cyclopropyl)amino)methyl)-6-(4-(methylsulfonyl)piperazin-1-yl)pyrimidin-2-yl)benzonitrile] | 87.6 | 27.4 | 
18 | COc1ccc(-c2c(OC)cc(N3CCC(N)CC3)cc2-c2ccc(C#N)c(F)c2)cc1O [Example 267, 5′-(4-aminopiperidin-1-yl)-3-fluoro-3″-hydroxy-3′,4″-dimethoxy-[1,1′:2′,1″-terphenyl]-4-nitrile trifluoroacetate] | 1 ± 0.4 | 3.87 | 
19 | Cc1ccc(-c2c(-c3ccc(C#N)c(F)c3)nc(N3CCC(N)CC3)c3ccoc23)cc1O [Example 268, 4-(4-(4-aminopiperidin-1-yl)-7-(3-hydroxy-4-methylphenyl)furan[3,2-c]pyridin-6-yl)-2-fluorobe nzonitrile hydrochloride] |  |  | IC50 [2]: 1.5 ± 0.5 nM; IC50 [3]: 0.378 nM
20 | COc1ccc(-c2c(-c3ccc(C#N)c(F)c3)nc(N3CCC(N)CC3)c3nc[nH]c23)cc1F [Example 270, 4-(4-(4-aminopiperidin-1-yl)-7-(3-fluoro-4-methoxyphenyl)-1H-imidazolo[4,5-c]pyridin-6-yl)-2-fluorobenzonitrile hydrochloride] | 10.1 | 8.64 | 
21 | COc1ccc(-c2c(-c3ccc(C#N)c(F)c3)nc(N3CCC(N)CC3)c3nc[nH]c23)cc1O [Example 271, 4-(4-(4-aminopiperidin-1-yl)-7-(3-hydroxy-4-methoxyphenyl)-1H-imidazolo[4,5-c]pyridin-6-yl)-2-fluorobenzonitrile hydrochloride] | 0.5 ± 0.4 | 9.77 | 
22 | Cc1noc2cc(-c3c(-c4ccc(C#N)c(F)c4)nc(N4CCC(N)CC4)c4nc[nH]c34)c(F)cc12 [Example 272, 4-(4-(4-aminopiperidin-1-yl)-7-(5-fluoro-3-methylbenzo[d]isoxazol-6-yl)-1H-imidazolo[4,5-c]pyridin-6-yl)-2-fluorobenzonitrile] | 1.8 ± 0.8 | 11 | 
23 | Cc1noc2cc(-c3c(C#N)cc(N4CCC(N)CC4)nc3-c3ccc(C#N)c(F)c3)c(F)cc12 [Example 275, 6-(4-aminopiperidin-1-yl)-2-(4-cyano-3-fluorophenyl)-3-(5-fluoro-3-methylbenzo[d]isoxazol-6-yl)isonionitrile] | 0.94 | 3.6 | 
24 | COc1ccc(-c2c(C)nc(N3CCC(N)CC3)c(C#N)c2-c2ccc(C#N)c(F)c2)cc1O [Example 276, 2-(4-aminopiperidin-1-yl)-4-(4-cyano-3-fluorophenyl)-5-(3-hydroxy-4-methoxyphenyl)-6-meth ylpyridine-3-carbonitrile] | 0.1 ± 0.01 | 1.1 ± 0.7 | 
25 | Cc1nc(N2CCC(N)CC2)c(C#N)c(-c2ccc(C#N)c(F)c2)c1-c1cc2onc(C)c2cc1F [Example 277, 2-(4-aminopiperidin-1-yl)-4-(4-cyano-3-fluorophenyl)-5-(5-fluoro-3-methylbenzo[d]isoxazol-6-yl)-6-methylnicotinonitrile] | 0.39 | 1.33 | 
26 | COc1ccc(-c2c(-c3ccc(C#N)c(F)c3)nc(N3CCC(N)CC3)c3ncoc23)cc1O [Example 278, 4-(4-(4-aminopiperidin-1-yl)-7-(3-hydroxy-4-methoxyphenyl)oxazolo[4,5-c]pyridin-6-yl)-2-fluo robenzonitrile] | 0.3 ± 0.1 | 0.648 | 
27 | Cc1noc2cc(-c3c(-c4ccc(C#N)c(F)c4)nc(N4CCC(N)CC4)c4ncoc34)c(F)cc12 [Example 279, 4-(4-(4-aminopiperidin-1-yl)-7-(5-fluoro-3-methylbenzo[d]isoxazol-6-yl)oxazolo[4,5-c]pyridin-6-yl)-2-fluorobenzonitrile] | 2.27 | 6.61 | 
28 | Cc1noc2cc(-c3c(-c4ccc(C#N)c(F)c4)nc(N4CCC(N)CC4)c4c3cnn4C)c(F)cc12 [Example 286, 4-(7-(4-aminopiperidin-1-yl)-4-(5-fluoro-3-methylbenzo[d]isoxazol-6-yl)-1-methyl-1H-pyrazolo [3,4-c]pyridin-5-yl)-2-fluorobenzonitrile] | 3.5 | 4.58 | 
29 | COc1ccc(-c2c(-c3ccc(C#N)c(F)c3)nc(N3CCC(N)CC3)c3[nH]ncc23)cc1O [Example 287, 4-(7-(4-aminopiperidin-1-yl)-4-(3-hydroxy-4-methoxyphenyl)-1H-pyrazolo[3,4-c]pyridin-5-yl)-2-fluorobenzonitrile hydrochloride] | 0.265 | 5.97 | 
30 | Cc1noc2cc(-c3c(-c4ccc(C#N)c(F)c4)nc(N4CCC(N)CC4)c4[nH]ncc34)c(F)cc12 [Example 288, 4-(7-(4-aminopiperidin-1-yl)-4-(5-fluoro-3-methylbenzo[d]isoxazol-6-yl)-1H-pyrazole[3,4-c]pyridin-5-yl)-2-fluorobenzonitrile hydrochloride] | 0.591 | 6.33 | 
